Measured values taken from patent publication US12180159B2, “Activators of the unfolded protein response” (The Board of Trustees of the University of Illinois, priority 2018, dated 2024).

Key:
[1] = test system: protein synthesis in Caov-3 cells; assay: Inhibition of protein synthesis (35S-methionine incorporation); format: cell-based, human; conditions: 1,000 nM
Experimental: ERα positive Caov-3, human ovarian cancer cells, were treated for the indicated times with 1,000 nM BHPI or 1,000 nM (−)-105. Cells were briefly labeled with ^35S-methionine. Incorporation of labeled ^35S-methionine into protein was determined by trichloroacetic acid precipitation and trapping of precipitated protein, but not free amino acids, in small Whatman hardened ashless filters. After solubilizing the protein in the filters with base and neutralization with acid, the samples were counted in a liquid scintillation counter. Shown is the average (n≥3) percent inhibition of protein synthesis compared to the 0-time sample. The near quantitative inhibition of protein synthesis by (−)-105 is consistent with (−)-105 inducing lethal hyperactivation of the PERK arm of the UPR. Even non-growing cells are constantly degrading protein and making new proteins. Cells in which nearly all (>90%) of protein synthesis is inhibited cannot grow and will ultimately die.

TYS-Luc cells = assay: Long-term cell culture experiment, TYS-Luc cells (MTS); format: cell-based, human; conditions: 2 weeks 1 μM, then 4 weeks without drug
Experimental: To simulate the effect of several weeks of treatment of a tumor in a mouse xenograft, long-term cell culture experiments were performed. TYS-Luc cells (T47DERαY537S-Luc cells; ERαY537S is the most lethal ERα mutation seen in metastatic breast cancer) were plated at 4,000 cells/well in 96 well plates. […] After 2 weeks (medium change every 2 days) cell number was determined using MTS and a standard curve of absorbance versus cell number for TYS-Luc cells. Notes: (i) Bars denote the BHPI and (−)-105 arms of the experiment. No drug is present during regrow. […] This allows any surviving cells to regrow. After 4 weeks the cells were assayed using MTS. […] (Note: Visual inspection of the wells confirmed that there were no cells in the well treated for 2 weeks with active (−)-105.) To test whether the cells that regrew after BHPI treatment were resistant to BHPI they were re-treated for another cycle (BHPI Retreat) and shown to retain sensitivity to BHPI killing. (n=8 biological replicates±SEM.

## O=C1Nc2c(C(F)(F)F)cccc2C1(c1ccc(O)cc1)c1ccc(OC(F)(F)F)cc1 (single isomer, unassigned; (-)) [(−)-105, 3-(4-hydroxyphenyl)-3-(4-(trifluoromethoxy)phenyl)-7-(trifluoromethyl)indolin-2-one]
[1]
  inhibition of the synthesis of new proteins: near-quantitative, inhibition
TYS-Luc cells
  regrowth of cells after treatment: no regrowth
